Usually Kd stands for a measure of binding affinity in units of concentration.

Four compounds from PMC7713294, “Multiplicity of carotene patterns derives from competition between phytoene desaturase diversification and biological environments” (Scientific Reports, 2020) can be followed below.

What all share (assay): HPLC-UV time course, global Michaelis-Menten fit (COPASI)
Type in all cases: biochemical

The target of assay [1] is T1, I4_Bt (CrtI from Blakeslea trispora) (Blakeslea trispora, UniProt Q67GI0).
T1 construct: gene carB; full length, codon optimized, C-terminal His6, E. coli BL21(DE3), TALON purified with FAD
T1 sequence (Q67GI0 1-582): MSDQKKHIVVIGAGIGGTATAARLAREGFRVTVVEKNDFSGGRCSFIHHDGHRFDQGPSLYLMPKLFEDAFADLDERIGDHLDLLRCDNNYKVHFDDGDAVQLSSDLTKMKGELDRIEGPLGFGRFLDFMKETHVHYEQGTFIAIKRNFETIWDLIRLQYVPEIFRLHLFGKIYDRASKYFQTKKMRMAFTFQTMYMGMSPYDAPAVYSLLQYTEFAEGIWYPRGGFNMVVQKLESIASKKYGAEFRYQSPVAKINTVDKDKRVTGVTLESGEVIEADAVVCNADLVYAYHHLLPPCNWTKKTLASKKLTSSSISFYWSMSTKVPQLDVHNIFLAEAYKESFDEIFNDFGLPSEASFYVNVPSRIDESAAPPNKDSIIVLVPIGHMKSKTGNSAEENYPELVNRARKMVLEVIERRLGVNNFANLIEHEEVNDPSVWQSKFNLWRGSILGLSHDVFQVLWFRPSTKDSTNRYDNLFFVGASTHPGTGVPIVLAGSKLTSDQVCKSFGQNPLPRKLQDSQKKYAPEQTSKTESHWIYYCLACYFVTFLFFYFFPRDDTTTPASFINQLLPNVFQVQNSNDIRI
To be noted: phytoene liposomes (soy lecithin), FAD, pH 8.0, 30 °C; Kd = kr/kf fitted with bounded rate constants.

The target of another assay is T2, I4_Ma (Mycolicibacterium aurum, UniProt Q9K566).
T2 construct: gene crtI; full length, codon optimized, C-terminal His6, E. coli BL21(DE3), TALON purified with FAD; species only as initials (Ma), read as Mycobacterium aurum
T2 sequence (Q9K566 entry or part of it): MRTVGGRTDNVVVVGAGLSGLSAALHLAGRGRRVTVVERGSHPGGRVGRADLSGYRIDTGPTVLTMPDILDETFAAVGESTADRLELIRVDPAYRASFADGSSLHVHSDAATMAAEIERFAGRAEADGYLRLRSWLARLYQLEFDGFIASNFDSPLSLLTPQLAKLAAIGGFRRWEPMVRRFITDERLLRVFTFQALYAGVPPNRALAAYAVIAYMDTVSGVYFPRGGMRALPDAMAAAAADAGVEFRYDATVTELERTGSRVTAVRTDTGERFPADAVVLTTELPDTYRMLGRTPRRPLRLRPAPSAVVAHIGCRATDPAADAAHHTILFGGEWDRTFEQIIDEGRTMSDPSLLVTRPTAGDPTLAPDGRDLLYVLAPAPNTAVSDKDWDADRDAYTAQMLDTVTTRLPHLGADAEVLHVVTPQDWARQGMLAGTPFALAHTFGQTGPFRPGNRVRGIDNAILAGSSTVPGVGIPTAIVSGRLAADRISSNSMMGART
To be noted: phytoene liposomes (soy lecithin), FAD, pH 8.0, 30 °C, Kd = kr/kf fitted with bounded rate constants.

The target in the next assay is T3, I3_Rc (Rhodobacter capsulatus, UniProt P17054).
T3 construct: gene crtI; full length, codon optimized, C-terminal His6, E. coli BL21(DE3), TALON purified with FAD; species only as initials
T3 sequence (P17054 whole entry): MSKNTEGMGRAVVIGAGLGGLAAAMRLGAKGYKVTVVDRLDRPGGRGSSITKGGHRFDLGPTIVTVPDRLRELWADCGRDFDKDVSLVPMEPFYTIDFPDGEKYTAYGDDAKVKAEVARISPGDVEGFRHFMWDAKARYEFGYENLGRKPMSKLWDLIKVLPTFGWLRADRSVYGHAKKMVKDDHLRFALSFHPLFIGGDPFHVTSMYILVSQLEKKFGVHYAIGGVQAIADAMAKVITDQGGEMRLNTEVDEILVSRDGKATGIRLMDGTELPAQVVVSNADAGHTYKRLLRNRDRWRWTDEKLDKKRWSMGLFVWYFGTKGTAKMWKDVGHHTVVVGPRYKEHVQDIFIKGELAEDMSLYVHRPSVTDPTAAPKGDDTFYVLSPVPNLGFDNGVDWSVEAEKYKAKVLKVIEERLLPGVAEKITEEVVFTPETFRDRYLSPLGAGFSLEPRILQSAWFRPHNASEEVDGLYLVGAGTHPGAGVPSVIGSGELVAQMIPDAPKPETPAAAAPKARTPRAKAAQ
To be noted: phytoene liposomes (soy lecithin), FAD, pH 8.0, 30 °C, Kd = kr/kf fitted with bounded rate constants.

Regarding `CC(C)=CCC/C(C)=C/C=C/C(C)=C/C=C/C(C)=C/C=C/C=C(C)/C=C/C=C(\C)CC/C=C(\C)CCC=C(C)C` [neurosporene], the Kd in assay [1] was determined as 1.6 µM; at I4_Ma (intermediate formed in situ from phytoene) it was 2100 nM; on I3_Rc (lycopene production poorly fitted for I3_Rc) it was 33 µM.
For the compound `CC(C)=CCC/C(C)=C/CC/C(C)=C/CC/C(C)=C/C=C\C=C(/C)CC/C=C(\C)CC/C=C(\C)CCC=C(C)C` [phytoene], the Kd turned out to be 7.9 µM in assay [1], 13100 nM on I4_Ma and 1.1 µM on I3_Rc.
For `CC(C)=CCC/C(C)=C/CC/C(C)=C/C=C/C(C)=C/C=C/C=C(\C)CC/C=C(\C)CC/C=C(\C)CCC=C(C)C` [phytofluene], in that order: 4.7 µM, 1000 nM and 1 µM.
Taken in the same sequence, the figures for `CC(C)=CCC/C(C)=C/CC/C(C)=C/C=C/C(C)=C/C=C/C=C(C)/C=C/C=C(\C)CC/C=C(\C)CCC=C(C)C` [ζ-carotene] were 2.5 µM, 2300 nM and 23 µM.
